Tests used:
HPAEC = experiment: TER assay of endothelial barrier function; assay type: cell-based, human
Description: In FIG. 28 TER assay with HPAEC treated with 0.2 U/mL thrombin, 10% fresh serum, 10% cultured clot serum or 10% LPS/cultured clot serum produced by peripheral blood collected from 4 healthy donors (N=2 tests per condition for donors 1 and 2 and N=1 test per condition for combined samples from donors 3 and 4). Mean ±standard deviation (N=4 thrombin and N=5 for all other conditions).

[1] = tested on: HEK293 human Lox-1 overexpression system; experiment: sLox-1 production in HEK293 human Lox-1 overexpression system; assay type: cell-based
Description: Thrombin, for example, had no effect on sLox-1 production in our HEK293 human Lox-1 overexpression system. The enzymes responsible for sLox-1 shedding are under intense debate and not yet identified in neutrophils. Close scrutiny of PR3 leads hypothesize it is a novel neutrophil-specific sheddase of sLox-1. PR3 is harbored in azurophilic and secretory granules of neutrophils. Upon release, PR3 associates with the neutrophil cell surface via CD177 in cholesterol-rich lipid rafts where Lox-1 is located. PR3 activity is believed to preserve endothelial barrier function during neutrophil extravasation. […] One study used trypsin digestion during sample preparation. The proposed sLox-1 cleavage motif is missing an aliphatic P1′ residue used by ADAM10 and ADAM17 to recognize a substrate. By contrast, the human Lox-1 cleavage region (QISA87R88QQA) has a very striking match with the PR3 cleavage site in IL-8 (AVLPRSA↓RKEL). […] (Table 5). The published cleavage sites for sLox-1 in bovine and human produce a non-conserved sLox-1 N-terminus, with NH2-Glutamine for human and NH2-Serine for bovine (Table 5). […] Potentially harmful bystander elastase activity of PR3 [73] could be suppressed by high levels of alpha-1 antitrypsin or ceruloplasmin that we detected by LC-MS in plasma and serum.

cultured blood clots = experiment: sLox-1 shedding into cultured clot serum (ELISA); assay type: cell-based, human; details: cultured clot 4 h, 37° C., vs cultured clot without additive, 100 ng/mL LPS, 10 mM bGP
Description: This is the enabling data for beta glycerol phosphate and PMA treated blood clots.
Parallel analysis of IL-8/CXCL8 in the cultured clot serum can be used to document test article cytocompatibility. The absence of IL6 in donor fresh blood can be used to verify there is no sepsis or bacteremia, and lack of IL-6 induction in the cultured clot serum can be used to identify sterile inflammation and test article purity (lack of endotoxin response).
In an embodiment, cultured clots were spiked with LPS by injecting an LPS solution into the vacutainer tube immediately after blood collection and before clot formation. These LPS/cultured clots shed even more sLox-1 into the serum than the paired cultured clots without LPS, in line with the known effect of LPS and downstream mediators (TNF, IL1A) in stimulating Lox-1 expression. (FIG. 2).
In an embodiment, a precision medicine tool is developed that detects Lox-1 induction in an ex vivo thrombus and shedding of soluble Lox-1 (sLox-1) into the serum. The tool consists of a red vacutainer tube with as little as 0.5 mL and more ideally 3 or 4 mL of peripheral whole venous blood, that is placed for 4 hours at 37° C.
The optimized cultured clot system involves placing a red cap vacutainer tube with anionic clot-activator at 37° C. for 4 hours after which serum may be collected. Serum contains a mixture of barrier-reducing and barrier-enhancing factors.

cultured clots [2] = experiment: RT-PCR of transcript levels in cultured clots; assay type: cell-based, human; details: cultured clot 4 h, 37° C.
Protocol: Lanes: 1. Fresh whole blood (PAXgene); 2. Fresh blood clot (45 min, RT); 3. Cultured clot (4 h, 37° C.); 4. LPS/cultured clot (4 h, 37° C.); 5. Beta-glycerol phosphate cultured clot (4 h, 37° C.); 6. Cultured heparin blood (4 h, 37° C.). OLR1 was induced in all cultured clots (4) and in all cultured clots+LPS ([…]).

cultured clots [3] = experiment: CXCL8/IL-8 and IL-6 protein in cultured clot serum; assay type: cell-based, human; details: cultured clot 4 h, 37° C.; for CXCL8/IL-8 protein in cultured clot serum: +100 ng/mL LPS or +10 mM bGP
Protocol: [Key: FB: fresh blood plasma, cC: cultured clot (4 h, 37° C.), Norm: cultured clot under Normoxia, Hyp: cultured clot under Hypoxia, Hep: heparin blood culture (4 h, 37° C.), +LPS: +100 ng/mL lipopolysaccharide, +bGP: +10 mM disodium beta glycerol phosphate].

cultured clots [4] = experiment: Neutrophil elastase (NE) release to cultured clot serum; assay type: cell-based, human; details: cultured clot 4 h 37° C.; +10 mM bGP
Protocol: FB=fresh blood; FC=fresh clot ([…] RT incubation); cC=cultured clot (4 h 37° C.; +LPS=cC+100 ng/mL LPS; +bGP=cC+10 mM bGP. This is enabling data for using the cultured clot system to screen drugs for the ability to inhibit neutrophil degranulation in an assay that uses minimally modified whole blood, by measuring the level of NE and/or PR3, or other granule factors (myeloperoxidase, cathepsin G, elastase, metalloproteinases, defensins) in treated versus untreated cultured clot serum.

endothelial cells = details: other studies; cited from earlier work
[5] = tested on: heparinized anticoagulated blood; experiment: Reversal of heparin anticoagulation to form viable cultured blood clots; assay type: cell-based; details: 4 hours at 37° C.; chitosan 99% DDA, 3 kDa or 10 kDa
Description: The degree of deacetylation is preferably from 90% to 100% and the molecular weight is preferably at least 3,000 Da and at most 500,000 Da.

sLox-1 shedding by cells = details: previous studies; cited from earlier work

Compound: thrombin
- effect on endothelial barrier function (HPAEC; 0.6 hours post-stimulation, vs control, fresh serum): transient loss of barrier function
- mean normalized resistance at 36 min (HPAEC; HPAEC, 10% serum or 0.2 U/mL thrombin, 36 min, mean ± SD): 0.48±0.03
- sLox-1 production [1]: no effect

Compound: lipopolysaccharide [LPS]
- sLox-1 shedding into cultured clot serum (cultured blood clots): increased
- IL6 expression (RT-PCR) (cultured clots [2]): induced
- IL-6 protein in cultured clot serum (cultured clots [3]; +100 ng/mL LPS): elevated
- CXCL8/IL-8 protein in cultured clot serum (cultured clots [3]): elevated

Compound: O=P([O-])([O-])OC(CO)CO.[Na+].[Na+] [bGP, disodium beta glycerol phosphate]
- sLox-1 shedding into cultured clot serum (cultured blood clots): suppressed
- sLox-1 shedding into cultured clot serum (cultured blood clots; listed as phosphatase inhibitor): inhibited
- CXCL8/IL-8 expression (RT-PCR) (cultured clots [2]; 10 mM): without suppressing
- TNF expression (RT-PCR) (cultured clots [2]; 10 mM): specifically suppressed
- CXCL8/IL-8 protein in cultured clot serum (cultured clots [3]): does not alter
- neutrophil elastase (NE) release to serum (cultured clots [4]): inhibited

Compound: CC(C)c1nc(N(C)S(C)(=O)=O)nc(-c2ccc(F)cc2)c1/C=C/[C@@H](O)C[C@@H](O)CC(=O)O [rosuvastatin]
- Lox-1 expression in endothelial cells (endothelial cells): inhibited Lox-1 expression

Compound: protamine
- reversal of heparin anticoagulation, forming viable cultured blood clots [5]: reverse heparin anticoagulation

Compound: O=S(=O)(F)Cc1ccccc1 [PMSF, phenylmethylsulfonyl fluoride]
- sLox-1 shedding by exposed cells (sLox-1 shedding by cells): reduced sLox-1 shedding

Compound: CCCCCCCCCCCCCC(=O)O[C@@H]1[C@@H](C)[C@@]2(O)[C@@H](C=C(CO)C[C@]3(O)C(=O)C(C)=C[C@@H]23)[C@@H]2C(C)(C)[C@]12OC(C)=O [PMA, phorbol myristate acetate]
- sLox-1 shedding into cultured clot serum (cultured blood clots): enhanced

Compound: CC(C)C[C@H](CC(=O)NO)C(=O)N[C@@H](Cc1ccc2ccccc2c1)C(=O)N[C@@H](C)C(=O)NCCN [TAPI-1]
- sLox-1 shedding by exposed cells (sLox-1 shedding by cells): reduced sLox-1 shedding

Source: patent US20240158465A1, “METHOD FOR INDUCING AND DETECTING SOLUBLE LOX-1 (sLOX-1) IN CULTURED BLOOD CLOTS” (GEORGE MASON UNIVERSITY, priority 2022, published 2024)
